According to patent publication US20230381142A1, “ANTILEISHMANIAL COMPOUNDS, COMPOSITIONS AND USE THEREOF” (TRUSTEES OF BOSTON UNIVERSITY, priority 2022, published 2023):
Read-outs that look alike come from different tables or passages of the source. Marks after values point to notes of the source that are not given here.

Experiments:
B10R cells = assay: UCSD infection assay, host cell cytotoxicity (CC50); format: cell-based; settings: host B10R cells
[1] = tested on: L. donovani intracellular amastigotes infecting THP-1 cells; assay: High content intracellular amastigote assay in THP-1 cells (Assay Conditions B; CDIPD screen); format: cell-based, Leishmania donovani; settings: 10 μM; THP-1 cells; footnote b
Procedure: (§1) Assay Conditions B: THP-1 cells (human acute monocytic leukemia cell line—ATCC TIB202) were grown in RPMI supplemented with 10% Fetal Bovine Serum (FBS) and 50 μM 2-mercaptoethanol at 37° C. in 5% CO2. THP-1 were seeded in microwell plates at 5×10^5 cells/mL density and treated with 0.1 μM phorbol myristate acetate (PMA, Sigma) at 37° C. for 48 h for differentiation into adherent, non-dividing macrophages. After activation by PMA, cells were washed and incubated with complete RPMI medium containing stationary phase Leishmania promastigotes (L. major: strain LV39; L. donovani, strain 1S/Cl2D) at a 1:15 parasite-cell ratio. Compounds were added and incubated at 37° C. for 72 h. Cells were then washed with phosphate-buffered saline (PBS), fixed for 30 minutes with 4% formaldehyde, rinsed again with PBS, stained for 2 h with 4′,6′-diamidino-2-phenylindole (DAPI 300 nM) and finally washed with PBS. In a collaborative effort to identify new antileishmanial chemotypes with minimal host cell cytotoxicity, compounds from the Boston University Center for Molecular Discovery (BUCMD) screening collection were assessed in a phenotypic, high content primary screen at the University of California's Center for Discovery and Innovation in Parasitic Diseases (CDIPD) for the ability to inhibit growth of L. donovani intracellular amastigotes infecting THP-1 cells. […] Dose-response testing in L. donovani (both intracellular amastigotes and promastigotes) confirmed concentration-dependent growth inhibition of both morphologies of the parasite at low micromolar EC50 values for both compounds (Table 1).

[2] = tested on: L. major (strain LV39) intracellular amastigotes infecting THP-1 cells; assay: High content intracellular amastigote assay in THP-1 cells (Assay Conditions B); format: cell-based, Leishmania major; settings: THP-1 cells; values marked b
Procedure: as §1

[3] = tested on: L. donovani promastigotes (strain 1S/Cl2D); assay: Promastigote assay, CellTiter-Glo (Assay Conditions F); format: cell-based; settings: Leishmania donovani; footnote f; read-out: L. donovani promastigotes EC50
Procedure: (§2) Assay Conditions F: Leishmania promastigotes (L. major: strain LV39; L. donovani, strain 1S/Cl2D) were maintained as previously described in PloS Negl Trop Dis (2015) 9(3):e0003588 and Pathogens (2021) 10(5):593) at 28° C. in M199 media supplemented with glutamine, adenosine, folic acid, hemin, HEPES, 10% Fetal Bovine Serum (Sigma-Aldrich, cat. no. F2442) and 1% Penicillin-Streptomycin (Gibco, cat. no. 15140122). For the promastigote assay, we followed the method previously described in PloS Negl Trop Dis (2011) 5(7):e1253. Briefly, promastigotes were incubated with the compounds for 72 h at 27° C., then lysed by adding 50 μL of CellTiter-Glo (Promega) and placed on an orbital shaker for 5 min at room temperature. After lysis, the resulting ATP-bioluminescence was measured using the Analyst HT plate reader (Molecular Devices).

[4] = tested on: L. major promastigotes (strain LV39); assay: as above; format: cell-based; settings: Leishmania major; footnote f; read-out: L. major promastigotes EC50
Procedure: as §2

THP-1 cells = assay: Host THP-1 cell cytotoxicity in the CDIPD high content screen; format: cell-based, human; settings: Homo sapiens, THP-1; 10 μM; footnote b; read-out: THP-1 host cell % growth inhibition at 10 μM
Procedure: as §1

[5] = tested on: L. donovani intracellular amastigotes infecting THP-1 macrophages; assay: GSK intramacrophage L. donovani assay (LD AMMAC, inMac; Assay Conditions C); format: cell-based; settings: Leishmania donovani; THP-1 cells; values marked c; read-out: L. donovani amastigotes EC50 (THP-1 cells)
Method in brief: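 L. donovani amastigotes within THP-1 macrophages; EC50 based on average intracellular amastigotes per infected cell (AMMAC). Infected-cell percentage (INFCELL) and host-cell number (MAC) also read, the latter as toxicity output.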

[6] = GSK inMac assay, host cell toxicity readout (LD MAC); format: cell-based, human; settings: human; footnote c; read-out: THP-1 Host Cell CC50
Method in brief: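 Intramacrophage L. donovani assay in THP-1 macrophages; host toxicity taken from host cell number per well, giving MAC EC50. Run alongside amastigote-per-cell and infected-cell readouts in the same wells.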

[7] = tested on: L. donovani intracellular amastigotes in B10R cells; assay: UCSD L. donovani infection assay (Assay Conditions D); format: cell-based; settings: B10R cells; for L. donovani amastigotes EC75 (B10R cells): footnote d; for EC50: Leishmania donovani, values marked d, read-out: L. donovani amastigotes EC50 (B10R cells)
Method in brief: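 B10R cells (300/well) infected with stationary-phase L. donovani WT promastigotes at 20 parasites/cell in DMEM high-glucose, 5% FBS, with compounds 72 h at 37° C., 5% CO2. Formaldehyde-fixed, DAPI-stained, imaged by high-content microscopy; 10-point 2-fold dilutions (screen at 10 μM) gave EC50 and host CC50.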

[8] = UCSD infection assay, host cell cytotoxicity (CC50); format: cell-based; settings: mouse, B10R host cells infected with L. donovani; footnote d
[9] = tested on: L. major (strain Friedlin) in J774 cells; assay: J774 luciferase infection assay (Assay Conditions E); format: cell-based, Leishmania major; settings: values marked e
Procedure: (§3) Assay Conditions E: J774 cells (ATCC J774A.1 were grown in DMEM supplemented with 10% Fetal Bovine Serum (FBS) and 1% Penicillin-Streptomycin at 37° C. in 5% CO2. Leishmania parasites expressing luciferase and GFP were grown as described in Front. Cell. Infect. Microbiol (2019) 9:237. J774 cells were seeded in microwell plates at 3×10^5 cells/mL density. Cells were washed with PBS and incubated with complete DMEM medium containing stationary phase Leishmania promastigotes (L. major: strain Friedlin; L. braziliensis, strain BA788) at a 1:10 parasite-cell ratio for 24 h. Cells were washed with PBS. Cells and compounds were incubated for 48 h at 37° C. and 5% C02. Compounds were tested in 8-point 2-fold serial dilution in 4 technical replicates, and 2 biological replicates. After 48 h, OneTiterGlo (Promega) (100 μl) was added to each well. Plates were incubated for 15 min and bioluminescence was measured using a plate reader (Molecular Devices). Effective concentration inducing 75% activity (EC75) was calculated using GraphPad Prism Software (version 9.0).

[10] = tested on: L. braziliensis (strain BA788) in J774 cells; assay: as above; format: cell-based, Leishmania braziliensis; settings: footnote e
Procedure: as §3

[11] = tested on: L. braziliensis-infected macrophages; assay: Macrophage (BMDM) infection with L. braziliensis and exposure to CMLDs; format: cell-based, Leishmania braziliensis; settings: for number of amastigotes per 100 macrophages / percentage of infected macrophages / EC50: 24 h exposure; for EC50: Leishmania braziliensis, Macrophage, percentage of infected macrophages, read-out: EC50 against L. braziliensis-infected macrophages
Procedure: Leishmania braziliensis (MIHOM/BR/00/BA788) and L. major (Friedlin) promastigotes were maintained in Schneider's medium (SIGMA) supplemented with 10% heat-inactivated FCS, 100 U/ml penicillin, 100 μg/ml streptomycin (all from Invitrogen).
BMDM were obtained as described above. Cells were resuspended in DMEM medium supplemented with 100 U/mL penicillin, […] streptomycin, and 10% heat-inactivated Fetal Bovine Serum (all from Invitrogen) and seeded at a density of 3×10^5 cells per well in 24-well culture plates. Monolayers received 3×10^6 cells L. braziliensis promastigotes and were incubated at 37° C. in supplemented DMEM medium for 24 h. Infected macrophages were then washed to remove non-internalized parasites. Compounds CMLD 011128, CMLD010947, CMLD010498, and CMLD011494 were added at different concentrations. After 24 hours, cells were extensively washed, fixed and stained with hematoxylin and eosin (H&E). The number of infected cells and of intracellular amastigotes were counted by optical microscopy in 200 macrophages. Positive controls consisted of cultures treated with Amphotericin B (0.25 μg/mL, Invitrogen). Cultures were performed in quintuplicate. Alternatively, infected macrophages were treated as described, monolayers were extensively washed and the medium was replaced by 0.5 ml of supplemented Schneider medium. Cells were cultured for seven additional days at 26° C., when number of viable promastigotes was determined using hemocytometer.
Results were expressed as the mean percentage reduction of infected cells compared with untreated control wells. Half-maximal effective concentrations (EC50) were determined by sigmoidal regression curves using Prism 7.0 software (GraphPad Software Inc.)

[12] = tested on: L. major-infected murine macrophages; assay: Macrophage infection with L. major and exposure to CMLDs; format: cell-based, Leishmania major; settings: for number of intracellular amastigotes / percentage of infected cells: L. major, only observed at the highest dose (1 μM)
[13] = tested on: macrophages from bone marrow; assay: Cellular viability of macrophages (Cell Titer Glo); format: cell-based, murine; settings: 500-1000 nM, 24 h
Procedure: Briefly, macrophages were obtained from bone marrow and seeded at a density of 1×10^6 cells per well in 24-well culture plates. After 2 hours, cells were treated with compounds at two concentrations (500 and 1000 nm) for 24 hours. Cell viability was determined using Cell Titer Glo (Promega), according to manufacturer's instructions. For positive control, pararosaniline chloride was used.

[14] = tested on: L. donovani intracellular amastigotes infecting THP-1 macrophages; settings: GlaxoSmithKline Phase I VL candidates; read-out: intramacrophage EC50; cited from earlier work

For COc1ncccc1C1c2c(CC(C)C)n[nH]c2C(=O)N1c1ccc2ncnn2c1 (stereo not shown) [BUCMD00162], the “B10R Host Cell CC50” value (B10R cells) was >10 µM.
In the case of COc1ccc(N2C(=O)c3[nH]nc(CC(C)C)c3C2c2ccc(F)cc2)cc1 (stereo not shown) [CMLD007431], the “L. donovani amastigotes % GI at 10 μM (THP-1 cells)” value [1] is reported as 99.0%, the “L. major amastigotes EC75 (THP-1 cells)” value [2] is reported as 1.3^b μM and the EC50 [3] is reported as 2000 nM. It also gave an EC50 [4] of 4.4 µM, an inhibition at 10 µM (THP-1 cells) of 13% and an EC50 [5] of 2500 nM. For the same molecule, the CC50 [6] was > 20 µM and the “L. donovani amastigotes EC75 (B10R cells)” value (shortened to “L. donovani amastigotes EC75”) [7] was 1.0 µM.
With COc1cc(F)ccc1C1c2c(CC(C)C)n[nH]c2C(=O)N1c1ccc(Br)cc1 (stereo not shown) [CMLD011494] the CC50 [6] was 4 µM, the “L. donovani amastigotes EC75” value [7] was 0.1 µM and the EC50 [7] was 100 nM. The CC50 at 72 h [8] was 3.98 µM, the “L. major amastigotes EC75 (J774 cells)” value [9] was 2.8^e μM and the “L. braziliensis amastigotes EC75 (J774 cells)” value [10] was 5.2 µM. For the same molecule, the “leishmanicidal effect on L. braziliensis infection in vitro” value (“leishmanicidal effect” below) [11] was “reduces L. braziliensis infection”, the “number of amastigotes per 100 macrophages” value ([11]; L. braziliensis) was “significantly reduced” and the “percentage of infected macrophages” value ([11]; L. braziliensis) was “significantly reduced”. For the same molecule, the “number of viable promastigotes after exposure of infected BMDM” value ([11]; L. braziliensis, culture in Schneider medium) was “significantly reduced”, the EC50 [11] was 1640 nM and the “L. major infection in vitro” value [12] was “reduce L. major infection”. The “number of intracellular amastigotes” value [12] was “significant decreased”, the “percentage of infected cells” value [12] was “significant decreased” and the “cell viability of macrophages” value [13] was “did not change cell viability”.
With Cc1cc(F)ccc1C1c2c(CC(C)C)n[nH]c2C(=O)N1c1ccc2ncnn2c1 (stereo not shown) [CMLD010948] the CC50 [6] was > 20 µM, the “L. donovani amastigotes EC75” value [7] was 1.1 µM and the EC50 [7] was 900 nM. For the same molecule, the “L. braziliensis amastigotes EC75 (J774 cells)” value [10] was 5.5 µM, the “leishmanicidal effect” value [11] was “reduces L. braziliensis infection” and the “number of amastigotes per 100 macrophages” value ([11]; L. braziliensis) was “significant decrease”. For the same molecule, the “percentage of infected macrophages” value ([11]; L. braziliensis) was “significant decrease”, the EC50 [11] was > 5000 nM and the “L. major infection in vitro” value [12] was “reduce L. major infection”. The “number of intracellular amastigotes” value [12] was “significant decreased”, the “percentage of infected cells” value [12] was “significant decreased” and the “cell viability of macrophages” value [13] was “did not change cell viability”.
In the case of COc1ccc(N2C(=O)c3[nH]nc(CC(C)C)c3C2c2ccccc2)cc1 (stereo not shown) [CMLD007427], the “L. donovani amastigotes % GI at 10 μM (THP-1 cells)” value [1] is reported as 100.0%, the “L. major amastigotes EC75 (THP-1 cells)” value [2] is reported as 1.7^b μM and the EC50 [3] is reported as 2400 nM. For the same molecule, the EC50 [4] was 4.2 µM, the inhibition at 10 µM (THP-1 cells) was 11% and the EC50 [5] was 3200 nM. The CC50 [6] was 31.6 µM and the “L. donovani amastigotes EC75” value [7] was 1.1 µM.
For C[C@H]1CN(c2n[nH]c3nc(N[C@H]4CC[C@H](NS(=O)(=O)CCC(F)(F)F)CC4)ncc23)CCO1 [GSK3186899], the EC50 [14] is given as 1400 nM.
In the case of COc1ccc(N2C(=O)c3[nH]nc(CC(C)C)c3[C@@H]2c2ccc(F)cc2)cc1 [CMLD011128], the EC50 [5] is reported as 800 nM, the CC50 [6] is reported as > 20 µM and the “L. donovani amastigotes EC75” value [7] is reported as 0.5 µM. The “L. braziliensis amastigotes EC75 (J774 cells)” value [10] was 7.5 µM, the “leishmanicidal effect” value [11] was “did not show leishmanicidal effects” and the “percentage of infected macrophages” value ([11]; L. braziliensis) was “did not decrease”.
For O=C(Nc1ccc(F)c(-c2ccn3c(N4CCOCC4)cnc3n2)c1)N1CCCC1 [GSK3494245], the EC50 [14] is given as 1600 nM.
